According to article PMC6315057, “Industrial scale high-throughput screening delivers multiple fast acting macrofilaricides” (Nature Communications, 2019):
Converted amounts (≈) assume the structure as drawn. Read-outs that look alike come from different tables or passages of the source.

Columns and labels:
[1] = Aqueous solubility in pH 7.4 PBS; format: physicochemical; details: for solubility: PBS pH 7.4, aqueous buffer, pH 7.4 PBS, read-out: Aqueous solubility in pH7.4 PBS
Excerpt: (§1) The DMPK data used for triaging compounds, including LogD7.4, aqueous solubility, plasma protein binding, microsome and hepatocyte clearance measurements, were generated using the standard AstraZeneca UK high-throughput platform[37],[38].

[2] = system: Wolbachia within Brugia malayi Mf; test: B. malayi microfilarial (Mf) in vitro anti-Wolbachia assay (wsp:gst qPCR); format: cell-based; details: for EC50: B. malayi Mf, 6 days, read-out: Mf EC50
Protocol: The Mf were obtained by peritoneal lavage, using a catheter, of gerbils (Meriones unguiculatus) harbouring a patent infection of B. malayi. Mf were purified using a PD-10 desalting column (Fisher), centrifuged (311 RCF for 5 min at room temperature) before the addition of 8000 Mf/well of a 96-well plate (100 µl per well) in complete media consisting of RPMI supplemented with 10% FBS, 1% penicillin streptomycin and 1% amphotericin B. […] Each plate contained doxycycline (5 µM) and DMSO controls. After incubation at 37 °C for 6 days in 5% CO2, visual assessment of Mf motility was performed and scored from 0 to 4 per well (where 0 = no movement and 4 = highly motile). DNA extraction per sample was performed using the QIAmp DNA Mini Kit before quantitative PCR was performed to obtain the ratio of Wolbachia Surface Protein gene copy number (wsp) to Glutathione S-Transferase gene copy number (gst)[36]. The DNA was amplified using the primers as indicated in Supplementary Table 6.
The wsp:gst ratio data allowed for normalisation of the Wolbachia level to the Mf biomass for each well. The change in wsp:gst for each compound compared to the DMSO control was calculated before normalisation to the onboard doxycycline control to allow for inter-assay comparison.

[3] = Rat hepatocyte clearance; format: in vitro ADME
Excerpt: as §1

[4] = system: THP-1 cells; test: Mammalian cell viability counter-screen (CellTiter-Blue); format: cell-based, human; details: 48 h, read-out: HTS IC50 mammalian toxicity
Protocol: The human monocytic THP-1 cell line (ATCC® TIB-202) used for mammalian cytotoxicity evaluation was routinely cultured in roller bottles. Growth media consisted of RPMI 1640 supplemented with 10% FBS and 2 mM L-glutamine. Cells were maintained at 37 °C with 95% humidity in 5% CO2 in a shaking incubator.
All compounds selected for secondary IC50 screen were tested in parallel for mammalian cell viability using the CellTiter-Blue® Cell Viability Assay. THP1 cells were removed from culture and plated at 1 × 10^4 cells/well (40 µl) into 384-well assay ready plates and incubated at 37 °C, 5% CO2 for 48 h at 95% humidity. After the addition of CellTiter-Blue Viability reagent (8 µl of a 1:6 dilution) the assay plates were incubated for a further 2 h before fluorescence detected using a PerkinElmer EnVision™ plate reader.

[5] = system: Wolbachia in C6/36 (wAlbB) cells; test: Secondary concentration response HTS (IC50) anti-Wolbachia screen in C6/36 (wAlbB) insect cells; format: cell-based, Wolbachia pipientis wAlbB (in Aedes albopictus C6/36 cells); details: 7-day incubation, 10-point concentration range
Protocol: Initially C6/36 (wAlbB) cells (insect cells stably infected with the Wolbachia target) from a single cryopreserved batch were recovered over 7 days prior to plating into 384-well assay ready plates (containing the test compounds), using a semi-automated process allowing for daily batches of ~150 plates, set up 4 days per week for 8 weeks. After a 7-day incubation period with the test compounds the plates were moved into the second fully automated stage (using the Agilent Technologies BioCel system) involving formaldehyde fixation, DNA staining of the insect cell nuclei (Hoechst) for toxicity analysis and antibody staining specific to the intracellular Wolbachia (wBmPAL primary antibody and far-red secondary antibody). In the final stage the fixed and stained plates from stage 2 were processed through automated data acquisition (High Res Biosolutions system, incorporating EnVision™ and acumen® plate readers). This industry standardised assay was then used to screen AstraZeneca’s full library of 1.3 million compounds within 10 weeks. In total this HTS included 30 × 3 week assays covering 3835 × 384-well plates. This primary HTS generated 20,255 hits defined as >80% reduction in Wolbachia with <60% toxicity to the host insect cell (eliminating false positives). This represents an overall hit rate of 1.56%. These compounds are depicted in chemical space in Fig. 2 (black points)[21].
The mosquito (Aedes albopictus) derived cell line C6/36 (ATCC® CRL 1660), stably infected with Wolbachia pipientis wAlbB (C6/36(wAlbB)), was maintained in Leibovitz L15 medium containing 2 mM L-glutamine, 1% nonessential amino acids, 2% tryptose phosphate broth and 20% heat-inactivated foetal bovine serum (FBS) at 26 °C[18]. This screen exclusively used cells from the large-scale cryopreserved batch produced as part of this campaign by culturing the cells at scale before cryopreservation (90% FBS and 10% DMSO). This produced a cell bank of 190 × 1 ml cryovials containing 3 × 10^7 cells per vial.
(§2) On day 0, a single cryovial was recovered and the cells washed before being transferred to a T225 cm^2 flask. After a 7-day recovery Wolbachia infection level (quality control (QC)) was checked by SYTO®11 DNA staining of both the host cell nuclei and intracellular Wolbachia. The end-point read out from the Operetta® high content imaging system (Perkin Elmer) was the percentage of cells infected with Wolbachia. This was obtained from cytoplasm texture analysis by the associated Harmony® software. Cells with a >50% of the population infected with Wolbachia were classed as having a good Wolbachia level and therefore used for screening through addition of 2000 cells per well into assay ready 384-well plates containing the test compounds. […] Each plate included on-board controls; vehicle/DMSO (total/maximum Wolbachia signal) or doxycycline 5 µM (null/minimum Wolbachia signal), resulting in single shot screening of 352 compounds per plate for the primary screen. […] QC plates were also created including full columns of the following controls; DMSO (total/max), 5 μM doxycycline (null/min), as well as 50 nM doxycycline (reference/medium Wolbachia signal). Daily batches contained ~150 compound plates in addition to the QC plates. Each compound plate was foil sealed before incubation for 7 days at 26 °C, 95% humidity and atmospheric air.
After 7 days of drug incubation, the plates were loaded into the fully automated BioCel system which performed the following additions; fixation and DNA staining (1.8% formaldehyde + 0.6 µg/ml Hoechst 33342, 20 min), permeabilisation (80 μl of PBS + 0.25% Triton-X 100, 30 min), blocking (PBS + 6% BSA, 40 min), overnight incubation in the Wolbachia-specific anti-wBmPAL primary antibody[34] […]

[6] = LogD7.4; format: physicochemical; details: pH 7.4
Excerpt: as §1

[7] = Human plasma protein binding; format: in vitro ADME; details: for fraction unbound: plasma
Excerpt: as §1

[8] = system: Wolbachia in C6/36 (wAlbB) cells; test: Confirmatory re-assessment in the insect cell screen (cell assay EC50); format: cell-based, Wolbachia pipientis wAlbB (in Aedes albopictus C6/36 cells); details: insect cell screen, re-sourced or re-synthesised samples
Excerpt: To further validate the hit molecules from these 9 clusters, samples were sourced either from the AstraZeneca compound inventory or through re-synthesis. All 18 samples were characterised by nuclear magnetic resonance (NMR) and mass spectroscopy to confirm their chemical structures and by HPLC/LCMS to establish their purity (Supplementary Table 5 and Supplementary Data 1). These samples were also subject to confirmatory re-assessment in both the insect cell screen and Mf assays for anti-Wolbachia potency alongside confirmation of DMPK properties (LogD7.4, aqueous solubility in pH 7.4 PBS, human microsomal turnover, rat hepatocyte turnover and human plasma protein binding) (Fig. 4, Supplementary Figure 1 and Supplementary Table 4).
as §2

[9] = Human microsome clearance; format: in vitro ADME; details: for microsomal CLint: human microsomes
Excerpt: as §1

SMILES | solubility [1] | EC50 ([2]; Brugia malayi, 144 h) | Rat hepatocytes CLint [3] | logD [6] | fraction unbound [7] | microsomal CLint ([9]; human) | Solubility (in words) [1] | Human microsomal stability (in words) [9] | Metabolic stability (in words) ([9]; in vitro, system not given) | EC50 [2] | LogD 7.4 [6] | Human plasma protein binding [7] | Human microsome CLint ([9]; human, microsomes) | IC50 ([4]; Homo sapiens) | IC50 ([5]; Wolbachia, 168 h) | EC50 ([8]; Wolbachia, C6/36) | Mf in vitro potency (in words) [2] | IC50 [4] | IC50 [5] | EC50 [8]
O=C(Cc1cccc(F)c1)Nc1[nH]ncc1-c1ccccc1 [2B, 2-(3-fluorophenyl)-N-(4-phenyl-1H-pyrazol-5-yl)acetamide] | 172 µM (≈ 50.8 µg/mL) | > 5000 nM | 39.5 µl/min/1x106 cells | 2.5 | 0.12 | 8.5 µL/min/mg |  |  |  |  |  |  |  | > 30.6 µM | 4370 nM | 11300 nM |  |  |  | 
CNC(=O)c1csc(C2CCCN2Cc2ccc(C)c(F)c2)n1 (stereo not shown) [4B, 2-(1-(3-fluoro-4-methylbenzyl)pyrrolidin-2-yl)-N-methylthiazole-4-carboxamide] | 397 µM (≈ 132 µg/mL) | 1760 nM | > 300 µl/min/1x106 cells | 3.7 | 0.05 | 83.4 µL/min/mg |  |  |  |  |  |  |  | > 30.6 µM | 228 nM | 66 nM |  |  |  | 
Cc1csc(CN(C)c2nc3c(s2)C(=O)NCCC3)n1 [6B, 2-(methyl((4-methylthiazol-2-yl)methyl)amino)-5,6,7,8-tetrahydro-4H-thiazolo[5,4-c]azepin-4-one] | 756 µM (≈ 233 µg/mL) | > 5000 nM | 22.9 µl/min/1x106 cells | 1.6 | 0.4 | 3.5 µL/min/mg |  |  |  |  |  |  |  | > 30.6 µM | 594 nM | 897 nM |  |  |  | 
COc1ccc(C(=O)Nc2ccc(CNC(=O)c3ccnn3C)cc2C)cn1 [7A, 6-methoxy-N-(2-methyl-4-((1-methyl-1H-pyrazole-5-carboxamido)methyl)phenyl)nicotinamide] | 100 µM (≈ 37.9 µg/mL) | ~1160 nM | < 1 µl/min/1x106 cells | 2 | 0.003 | < 3 µL/min/mg | good |  | high |  |  |  |  | 23.2 µM | 1270 nM | 1140 nM |  |  |  | 
COCc1ccc(C(=O)Nc2ccc(CNC(=O)c3ccnn3C)cc2C)nc1 [7B, 5-(methoxymethyl)-N-(2-methyl-4-((1-methyl-1H-pyrazole-5-carboxamido)methyl)phenyl) picolinamide] |  |  | 25.0 µl/min/1x106 cells |  |  |  |  |  |  | 2220 nM | 2.3 | 99.5% | 40.7 µL/min/mg |  |  |  |  | > 30.6 µM | 2480 nM | 3070 nM
CN(Cc1cccc(Cl)c1)S(=O)(=O)c1ccc2c(c1)C(=O)NCC2 [8A, N-(3-chlorobenzyl)-N-methyl-1-oxo-1,2,3,4-tetrahydroisoquinoline-7-sulfonamide] | 16 µM (≈ 5.84 µg/mL) | 2700 nM | > 300 µl/min/1x106 cells | 2.7 | 0.05 | > 300 µL/min/mg |  |  |  |  |  |  |  | > 30.6 µM | 486 nM | 515 nM |  |  |  | 

Second part, led by results:

solubility [1] | EC50 ([2]; Brugia malayi, 144 h) | Rat hepatocytes CLint [3] | logD [6] | fraction unbound [7] | microsomal CLint ([9]; human) | Solubility (in words) [1] | Human microsomal stability (in words) [9] | Metabolic stability (in words) ([9]; in vitro, system not given) | EC50 [2] | LogD 7.4 [6] | Human plasma protein binding [7] | Human microsome CLint ([9]; human, microsomes) | SMILES | IC50 ([4]; Homo sapiens) | IC50 ([5]; Wolbachia, 168 h) | EC50 ([8]; Wolbachia, C6/36) | Mf in vitro potency (in words) [2] | IC50 [4] | IC50 [5] | EC50 [8]
217 µM (≈ 113 µg/mL) | ~296 nM | 24.8 µl/min/1x106 cells | 2.7 | 0.23 | > 300 µL/min/mg |  |  |  |  |  |  |  | Cc1nccc(N2CCC(C(=O)N3CCCN(S(=O)(=O)c4ccc(Br)cc4)CC3)CC2)n1 [1B, (4-((4-bromophenyl)sulfonyl)-1,4-diazepan-1-yl)(1-(2-methylpyrimidin-4-yl)piperidin-4-yl)methanone] | > 30.6 µM | 111 nM | 268 nM |  |  |  | 
> 1000 µM | ~223 nM | 218.6 µl/min/1x106 cells | 2.5 | 0.2 | 35.5 µL/min/mg |  |  |  |  |  |  |  | CN(CC1CCCC(=O)N1)c1cc(OCc2ccccc2)nc(-c2nccn2C)n1 (stereo not shown) [3B, 6-(((6-(benzyloxy)-2-(1-methyl-1H-imidazol-2-yl)pyrimidin-4-yl)(methyl)amino)methyl)piperidin-2-one] | > 30.6 µM | 510 nM | 645 nM |  |  |  | 
22 µM (≈ 9.07 µg/mL) | 294 nM | 71.1 µl/min/1x106 cells | 4.6 | 0.011 | 101 µL/min/mg |  |  |  |  |  |  |  | Cc1nc(C(=O)NC(C)c2cccc3ccccc23)c(NC(=O)Cc2ccccc2)[nH]1 (stereo not shown) [5B, 2-methyl-N-(1-(naphthalen-1-yl)ethyl)-5-(2-phenylacetamido)-1H-imidazole-4-carboxamide] | > 30.6 µM | 158 nM | 68 nM |  |  |  | 
26 µM (≈ 9.01 µg/mL) | 447 nM | 55.1 µl/min/1x106 cells | 2.9 | 0.088 | 11.3 µL/min/mg | acceptable | very good |  |  |  |  |  | O=C1NCCCc2nc(N3CCN(c4ccccc4F)CC3)sc21 [6A, 2-(4-(2-fluorophenyl)piperazin-1-yl)-5,6,7,8-tetrahydro-4H-thiazolo[5,4-c]azepin-4-one] | > 30.6 µM | 684 nM | 2560 nM | lower potency than representatives 4A or 5A |  |  | 
